Measurements from US9409952B2, “Peptide-compound cyclization method” (Chugai Seiyaku Kabushiki Kaisha, priority 2011, dated 2016).
Like-named read-outs stand apart in the source and are kept apart here. Starred links: 1 amine or outer side, 2 acyl side, 3 side chain; linkers in the order of their positions; H or OH if unused. Positions of bridges follow the written chain, without caps; N, C: chain ends. Non-standard residues stand in square brackets, D forms with d. Residues, ends and D or L forms follow the SMILES beside them. ξ: configuration not given here. *: point of attachment. NMePhe(3-Cl) = CN[C@@H](Cc1cccc(Cl)c1)C(=O)O; NEtPhe = CCN[C@@H](Cc1ccccc1)C(=O)O; NMeF = CN[C@@H](Cc1ccccc1)C(=O)O; NMeGABA = CN(CCCC(=O)[*:2])[*:1]; NMeI = CC[C@H](C)[C@H](NC)C(=O)O; NMeβAla = CN(CCC(=O)[*:2])[*:1]; NMeξIle = CC[C@H](C)C(NC)C(=O)O; ξThr(3R) = C[C@@H](O)C(N)C(=O)O; NMeL = CN[C@@H](CC(C)C)C(=O)O; NMeV = CN[C@H](C(=O)O)C(C)C; NMeA = CN[C@@H](C)C(=O)O; Piperidide = C1CCN(*)CC1; dNMeA = CN[C@H](C)C(=O)O; β3hA = C[C@H](N)CC(=O)O; ξL = CC(C)CC(N)C(=O)O; Sar = CNCC(=O)O; tBu = CC(C)(C)*

How the values were obtained:
[1] = Metabolic stability in human hepatic microsome; type: in vitro ADME; details: microsomes
[2] = PAMPA (parallel artificial membrane permeability assay); type: in vitro ADME; details: PAMPA
Procedure, shortened: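 Artificial membrane was 10% (w/v) egg lecithin plus 0.5% (w/v) cholesterol in dodecane on a PVDF filter. A 10 mM DMSO stock was added at 0.5% (v/v) to donor buffer (50 mM MOPSO, pH 6.5, 5.0% glycocholic acid). After 18 h at 37 °C, LC/MS or LC/UV gave donor and acceptor levels for Pe.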

[3] = pH 7.4, human hepatic microsome, NADPH(+), read-out: CL NADPH(+)
[4] = membrane permeation rate (Pe), 50 mM MOPSO buffer pH 6.5 with 5.0% glycocholic acid, 37° C., 18 hours, read-out: iPAMPA Pe

SMILES	microsomal CLint at 1 uM [1, 3] [µL/min/mg]	Papp at 18 hours, 50 µM [2, 4] [×10⁻⁶ cm/s]	microsomal CLint at 1 uM ([1]; human, pH 7.4, CL NADPH(+)) [µL/min/mg]	Papp at 18 hours, 50 µM ([2]; pH 6.5) [×10⁻⁶ cm/s]
CC(C)C[C@@H]1NC(=O)[C@H](C(C)C)N(C)C(=O)[C@H](C)N(C)C(=O)[C@H](Cc2ccccc2)N(C)C(=O)[C@H](Cc2ccccc2)NC(=O)[C@@H](C)N(C)C(=O)C[C@@H](C(=O)N2CCCCC2)NC(=O)[C@H]([C@@H](C)O)NC(=O)[C@H](C)N(C)C(=O)[C@H](C)N(C)C(=O)[C@H](C)NC(=O)CN(C)C1=O [DP-467] ([dNMeA]F[NMeF][NMeA][NMeV]L[Sar]A[NMeA][NMeA]TD-Piperidide; lactam N-12)	12	1.5		
CC[C@H](C)[C@@H]1NC(=O)[C@H](Cc2ccccc2)N(C)C(=O)[C@@H]2CCCN2C(=O)[C@H]([C@@H](C)O)NC(=O)[C@H](CC(C)C)NC(=O)[C@H](C)N(C)C(=O)CCCN(C)C(=O)C[C@@H](C(=O)N2CCCCC2)NC(=O)[C@H](CC(C)C)NC(=O)[C@H](CC(C)C)N(C)C(=O)CNC(=O)[C@H](Cc2ccccc2)N(C)C1=O [DP-109] ([NMeGABA][NMeA]LTP[NMeF]I[NMeF]G[NMeL]LD-Piperidide; lactam N-12)	36	30		
CC(C)C[C@H]1C(=O)N[C@@H](COC(C)(C)C)C(=O)N[C@H](C(=O)N2CCCCC2)CC(=O)N(C)[C@@H](C)C(=O)N(C)[C@@H](Cc2ccccc2)C(=O)N(C)[C@@H](CC(C)C)C(=O)N[C@@H]([C@@H](C)O)C(=O)N(C)[C@@H](C)C(=O)N1C [DP-707] ([NMeA][NMeF][NMeL]T[NMeA][NMeL]S(tBu)D-Piperidide; lactam N-8)	84	29		
CC(C)C[C@@H]1NC(=O)[C@H]([C@@H](C)O)NC(=O)[C@H](CC(C)C)N(C)C(=O)[C@H](Cc2ccccc2)N(C)C(=O)CN(C)C(=O)[C@@H](C)NC(=O)C[C@@H](C(=O)N2CCCCC2)NC1=O [DP-742] ([dA][Sar][NMeF][NMeL]TLD-Piperidide; lactam N-7)	175	15		
CC[C@H](C)C1C(=O)N(C)[C@@H](Cc2ccccc2)C(=O)N[C@H](C(=O)N2CCCCC2)CC(=O)N(C)CC(=O)NC(CC(C)C)C(=O)N(C)[C@@H](Cc2ccccc2)C(=O)N(C)[C@@H](CC(C)C)C(=O)N[C@@H](C)C(=O)N(C)[C@@H](C(C)C)C(=O)N(C)[C@@H](C)C(=O)N[C@@H]([C@@H](C)O)C(=O)N(C)CC(=O)N1C (stereo partly drawn) [DP-64] ([Sar][ξL][NMeF][NMeL]A[NMeV][NMeA]T[Sar][NMeξIle][NMeF]D-Piperidide; lactam N-12)			25	24
CC(C)C[C@H]1C(=O)N[C@@H](Cc2ccccc2)C(=O)N[C@@H]([C@@H](C)O)C(=O)N(C)[C@@H](C)C(=O)N[C@H](C(=O)N2CCCCC2)CC(=O)N(C)CC(=O)N[C@@H](C)C(=O)N(C)[C@@H](Cc2ccccc2)C(=O)N(C)[C@@H](CC(C)C)C(=O)N1C [DP-161] ([Sar]A[NMeF][NMeL][NMeL]FT[NMeA]D-Piperidide; lactam N-9)	194	26		
CC[C@H](C)[C@@H]1NC(=O)[C@H](Cc2cccc(Cl)c2)N(C)C(=O)[C@H](CC(C)C)N(C)C(=O)C[C@@H](C(=O)N2CCCCC2)NC(=O)[C@H](CC(C)C)N(C)C(=O)[C@H](CC(C)C)N(C)C(=O)[C@H](CC(C)C)NC(=O)[C@H](C)N(C)C(=O)[C@@H](NC(=O)[C@H](CC(C)C)N(C)C(=O)[C@@H]2CCCN2C(=O)CO)CCCCNC1=O [DP-964, ^HOGly-Pro-MeLeu-*Lys-MeAla-Leu-MeLeu-MeLeu-Asp-piperidine-MeLeu-MePhe(3-Cl)-Ile* (cyclized at two * sites)]			38	8.9
CC(C)C[C@@H]1NC(=O)[C@H](Cc2ccccc2)NC(=O)[C@H](CC(C)C)N(C)C(=O)[C@H](Cc2ccccc2)NC(=O)[C@@H](C)N(C)C(=O)C[C@H](C)NC(=O)[C@H](Cc2ccccc2)N(C)C(=O)CNC(=O)[C@H]([C@@H](C)O)NC(=O)[C@H](CC(C)C)NC1=O [DP-784] (cyclo(FLLTG[NMeF][β3hA][dNMeA]F[NMeL]))			97	46
CC[C@H](C)[C@@H]1NC(=O)CN(C)C(=O)[C@H]([C@@H](C)O)NC(=O)[C@H](CC(C)C)N(C)C(=O)[C@H](Cc2ccccc2)N(C)C(=O)CCN(C)C(=O)C[C@@H](C(=O)N2CCCCC2)NC(=O)[C@H](CC(C)C)N(C)C(=O)[C@H](CC(C)C)N(C)C1=O [DP-440] ([NMeβAla][NMeF][NMeL]T[Sar]I[NMeL][NMeL]D-Piperidide; lactam N-9)	124	29		
CC[C@H](C)[C@@H]1NC(=O)[C@H](Cc2ccccc2)N(C)C(=O)CN(C)C(=O)[C@H]([C@@H](C)O)NC(=O)[C@H](CC(C)C)NC(=O)[C@H](CC(C)C)N(C)C(=O)[C@H](C)N(C)C(=O)CCCN(C)C(=O)C[C@@H](C(=O)N2CCCCC2)NC(=O)[C@H](Cc2ccccc2)N(C)C(=O)[C@H](C(C)C)N(C)C1=O [DP-477] ([NMeGABA][NMeA][NMeL]LT[Sar][NMeF]I[NMeV][NMeF]D-Piperidide; lactam N-11)	30	29		
CC(C)C[C@H]1C(=O)N(C)[C@@H](C)C(=O)N[C@H](C(=O)N(C)[C@@H](Cc2ccccc2)C(=O)N[C@@H](C)C(=O)N2CCCCC2)CC(=O)N(C)[C@H](C)C(=O)N(C)[C@@H](C)C(=O)N[C@@H](C)C(=O)N(C)[C@@H](Cc2ccccc2)C(=O)N(C)[C@@H](C)C(=O)N(C)[C@@H](Cc2ccccc2)C(=O)N[C@@H]([C@@H](C)O)C(=O)N(C)[C@@H](C)C(=O)N1C [DP-443] ([dNMeA][NMeA]A[NMeF][NMeA][NMeF]T[NMeA][NMeL][NMeA]D[NMeF]A-Piperidide; lactam N-11)	17	9.1		
CC(C)C[C@@H]1NC(=O)[C@H](CC(C)C)N(C)C(=O)[C@H](C)N(C)C(=O)C[C@@H](C(=O)N(C)[C@@H](Cc2ccccc2)C(=O)N[C@@H](C)C(=O)N2CCCCC2)NC(=O)[C@H](CC(C)C)N(C)C(=O)[C@H](Cc2ccccc2)NC(=O)[C@H](Cc2ccccc2)N(C)C(=O)[C@H](C)NC(=O)[C@H]([C@@H](C)O)NC(=O)[C@H](CC(C)C)N(C)C1=O [DP-350] ([NMeA][NMeL]L[NMeL]TA[NMeF]F[NMeL]D[NMeF]A-Piperidide; lactam N-10)	29	2		
CC[C@H](C)[C@@H]1NC(=O)[C@H](C)NC(=O)C[C@@H](C(=O)N2CCCCC2)NC(=O)[C@H](Cc2ccccc2)NC(=O)[C@H](C(C)C)N(C)C(=O)[C@H](CC(C)C)NC(=O)[C@H](C)N(C)C(=O)[C@H](Cc2ccccc2)N(C)C(=O)[C@H]([C@@H](C)O)NC(=O)CN(C)C(=O)[C@H](CC(C)C)N(C)C(=O)[C@@H]2CCCN2C1=O [DP-9] (AIP[NMeL][Sar]T[NMeF][NMeA]L[NMeV]FD-Piperidide; lactam N-12)	18	13		
CC(C)C[C@H]1C(=O)N(C)[C@@H](Cc2ccccc2)C(=O)N[C@H](C(=O)N2CCCCC2)CC(=O)N(C)CCCC(=O)N(C)[C@@H](C)C(=O)N(C)[C@@H](CC(C)C)C(=O)N[C@@H]([C@@H](C)O)C(=O)N(C)CC(=O)N1C [DP-712] ([NMeGABA][NMeA][NMeL]T[Sar][NMeL][NMeF]D-Piperidide; lactam N-8)	57	12		
CC[C@H](C)[C@H](NC(=O)[C@H](CC(C)C)NC(=O)[C@@H]1CCCN1C(=O)[C@H](CC(C)C)NC(=O)[C@H](CC(C)C)N(C)C(=O)[C@@H]1CC(=O)N[C@@H](Cc2ccccc2)C(=O)N[C@@H](CC(C)C)C(=O)N(C)[C@@H](CC(C)C)C(=O)N[C@@H]([C@@H](C)O)C(=O)N(C)[C@@H](Cc2cccc(Cl)c2)C(=O)N(C)[C@@H](C)C(=O)N(C)[C@@H](CC(C)C)C(=O)N1)C(=O)N1CCCCC1 [DP-925] (FL[NMeL]T[NMePhe(3-Cl)][NMeA][NMeL]D[NMeL]LPLI-Piperidide; lactam N-8)	2	0.1		
CC[C@H](C)[C@H]1C(=O)N(C)[C@@H](CC(C)C)C(=O)N[C@H](C(=O)N2CCCCC2)CC(=O)N(C)CC(=O)N[C@@H](CC(C)C)C(=O)N[C@@H]([C@@H](C)O)C(=O)N(C)CC(=O)N(CC)[C@@H](Cc2ccccc2)C(=O)N[C@@H](C)C(=O)N(C)[C@@H](Cc2ccccc2)C(=O)N(C)[C@@H](CC(C)C)C(=O)N1C [DP-546] ([Sar]LT[Sar][NEtPhe]A[NMeF][NMeL][NMeI][NMeL]D-Piperidide; lactam N-11)	34	41		
CC[C@H](C)[C@H]1C(=O)N[C@@H](C)C(=O)N[C@H](C(=O)N2CCCCC2)CC(=O)N[C@H](C)C(=O)N[C@@H](Cc2ccccc2)C(=O)N(C)[C@@H](CC(C)C)C(=O)N[C@@H](CC(C)C)C(=O)N[C@@H](Cc2ccccc2)C(=O)N2CCC[C@H]2C(=O)N[C@@H]([C@@H](C)O)C(=O)N[C@@H](COC(C)(C)C)C(=O)N(C)CC(=O)N1C [DP-88] ([dA]F[NMeL]LFPTS(tBu)[Sar][NMeI]AD-Piperidide; lactam N-12)			32	13
CC[C@H](C)[C@@H]1NC(=O)[C@@H]2CCCN2C(=O)[C@H](Cc2ccccc2)NC(=O)[C@H](Cc2ccccc2)NC(=O)[C@H](CC(C)C)NC(=O)[C@H](C(C)C)N(C)C(=O)[C@H](CC(C)C)NC(=O)[C@H](C)NC(=O)[C@H](C)NC(=O)C[C@@H](C(=O)N2CCCCC2)NC(=O)CNC(=O)C([C@@H](C)O)NC1=O (stereo partly drawn) [DP-3] (AAL[NMeV]LFFPI[ξThr(3R)]GD-Piperidide; lactam N-12)			45	0.56
